Experimental data taken from ChEMBL document CHEMBL1145408, “Substituted E-3-(2-chloro-3-indolylmethylene)1,3-dihydroindol-2-ones with antitumor activity. Effect on the cell cycle and apoptosis” (2007).
Where a name gives a salt, the structure may show the parent alone. Blank lines part the entries; values can stand above or below the compound they belong to. Calls of active or inactive are those of the source. The calls are words filed in the database; no cut-off is given here.

Columns and labels:
Caspase-7 (Homo sapiens) = target: T1, Caspase-7 (Homo sapiens) (UniProt P55210); test: Activation of caspase 7 activity in IGROV1 cells assessed as DEVD peptide hydrolysis at 5 uM after 24 hrs; assay type: cell-based; details: IGROV-1
T1 sequence (whole entry): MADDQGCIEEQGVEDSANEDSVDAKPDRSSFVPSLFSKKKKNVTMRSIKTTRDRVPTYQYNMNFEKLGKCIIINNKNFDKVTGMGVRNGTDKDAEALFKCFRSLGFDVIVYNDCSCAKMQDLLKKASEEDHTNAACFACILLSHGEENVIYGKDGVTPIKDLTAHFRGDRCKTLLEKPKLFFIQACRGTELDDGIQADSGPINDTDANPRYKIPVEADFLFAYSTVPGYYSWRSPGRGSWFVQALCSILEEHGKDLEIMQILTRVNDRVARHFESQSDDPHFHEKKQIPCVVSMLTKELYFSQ

Caspase-3 (Homo sapiens) = target: T2, Caspase-3 (Homo sapiens) (UniProt P42574); test: Activation of caspase 3 activity in IGROV1 cells assessed as DEVD peptide hydrolysis at 5 uM after 24 hrs; assay type: cell-based; details: IGROV-1
T2 sequence (whole entry): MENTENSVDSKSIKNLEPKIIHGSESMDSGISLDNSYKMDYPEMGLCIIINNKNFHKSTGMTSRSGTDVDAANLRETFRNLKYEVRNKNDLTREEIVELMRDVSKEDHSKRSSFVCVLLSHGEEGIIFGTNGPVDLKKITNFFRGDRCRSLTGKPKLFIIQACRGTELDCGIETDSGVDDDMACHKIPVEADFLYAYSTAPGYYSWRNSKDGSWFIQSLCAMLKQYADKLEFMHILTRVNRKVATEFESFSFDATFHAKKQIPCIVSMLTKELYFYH

[1] = Antitumor activity against melanoma cells; assay type: functional; details: Homo sapiens, Melanoma cell; for CC50: read-out: Log LC50 (the source's name) (converted); for TGI: read-out: pTGI (converted)
NSCLC = test: Antitumor activity against NSCLC cells; assay type: functional; details: Homo sapiens; for TGI: read-out: pTGI (converted)
[2] = Antitumor activity against ovarian tumor cells; assay type: functional; details: Homo sapiens; for TGI: read-out: pTGI (converted)
[3] = Antitumor activity against leukemia cells; assay type: functional; details: Homo sapiens, Leukemia cell; for TGI: read-out: pTGI (converted)
[4] = Antitumor activity against renal tumor cells; assay type: functional; details: Homo sapiens; for TGI: read-out: pTGI (converted)
[5] = Antitumor activity against colon tumor cells; assay type: functional; details: Homo sapiens; for TGI: read-out: pTGI (converted)
[6] = Antitumor activity against prostate tumor cells; assay type: functional; details: Homo sapiens; for CC50: read-out: Log LC50 (the source's name) (converted); for TGI: read-out: pTGI (converted)
[7] = Antitumor activity against CNS tumor cells; assay type: functional; details: Homo sapiens; for TGI: read-out: pTGI (converted)
[8] = Antitumor activity against breast tumor cells; assay type: functional; details: Homo sapiens; for TGI: read-out: pTGI (converted)

Activity (Caspase-7 (Homo sapiens)): Active
Activity (Caspase-3 (Homo sapiens)): Active
SMILES: COc1cc2c(/C=C3/C(=O)Nc4ccc(F)cc43)c(Cl)n(C)c2cc1C

Activity (Caspase-7 (Homo sapiens)): Active
Activity (Caspase-3 (Homo sapiens)): Active
SMILES: COc1cc2c(/C=C3/C(=O)Nc4ccc(Cl)cc43)c(Cl)n(C)c2cc1C

Activity (Caspase-7 (Homo sapiens)): Active
Activity (Caspase-3 (Homo sapiens)): Active
SMILES: COc1cc2c(/C=C3/C(=O)Nc4ccc(F)cc43)c(Cl)n(Cc3ccccc3)c2cc1C

Activity (Caspase-7 (Homo sapiens)): Active
Activity (Caspase-3 (Homo sapiens)): Active
SMILES: COc1cc2c(/C=C3/C(=O)Nc4ccc(O)cc43)c(Cl)n(C)c2cc1C

SMILES: CC[C@]1(O)C[C@H]2CN(CCc3c([nH]c4ccccc34)[C@@](C(=O)OC)(c3cc4c(cc3OC)N(C=O)[C@H]3[C@@](O)(C(=O)OC)[C@H](OC(C)=O)[C@]5(CC)C=CCN6CC[C@]43[C@@H]65)C2)C1 [VINCRISTINE SULFATE]
GI50 [1]: 158 nM
CC50 [1]: 251000 nM
TGI [1]: 7940 nM
GI50 (NSCLC): 251 nM
TGI (NSCLC): 15800 nM
GI50 [2]: 316 nM
TGI [2]: 20000 nM
GI50 [3]: 100 nM
TGI [3]: 15800 nM
GI50 [4]: 316 nM
TGI [4]: 20000 nM
GI50 [5]: 100 nM
TGI [5]: 3980 nM
GI50 [6]: 126 nM
CC50 [6]: 316000 nM
TGI [6]: 6310 nM
GI50 [7]: 126 nM
TGI [7]: 6310 nM
GI50 [8]: 316 nM
TGI [8]: 7940 nM

Activity (Caspase-7 (Homo sapiens)): Active
Activity (Caspase-3 (Homo sapiens)): Active
SMILES: COc1cc2c(/C=C3/C(=O)Nc4ccc(Cl)cc43)c(Cl)n(Cc3ccc(Cl)cc3)c2cc1C

SMILES: COc1cc2c(/C=C3/C(=O)Nc4c3ccc3ccccc43)c(Cl)[nH]c2cc1C
GI50 [1]: 10 nM
CC50 [1]: 40700 nM
TGI [1]: 3550 nM
GI50 (NSCLC): 102 nM
LC50 (NSCLC): 49000 nM
TGI (NSCLC): 4270 nM
Activity (Caspase-7 (Homo sapiens)): Active
GI50 [2]: 12 nM
LC50 [2]: 47900 nM
TGI [2]: 708 nM
Activity (Caspase-3 (Homo sapiens)): Active
GI50 [3]: 10.2 nM
TGI [3]: 537 nM
GI50 [4]: 89.1 nM
LC50 [4]: 50100 nM
TGI [4]: 30900 nM
GI50 [5]: 17 nM
LC50 [5]: 50100 nM
TGI [5]: 3720 nM
GI50 [6]: 17 nM
CC50 [6]: 50100 nM
TGI [6]: 50100 nM
GI50 [7]: 13.5 nM
LC50 [7]: 50100 nM
TGI [7]: 794 nM
GI50 [8]: 39.8 nM
LC50 [8]: 50100 nM
TGI [8]: 2040 nM

Activity (Caspase-7 (Homo sapiens)): Active
Activity (Caspase-3 (Homo sapiens)): Active
SMILES: COc1cc2c(/C=C3/C(=O)Nc4ccc(O)cc43)c(Cl)n(Cc3ccc(Cl)cc3)c2cc1C

Activity (Caspase-7 (Homo sapiens)): Active
Activity (Caspase-3 (Homo sapiens)): Active
SMILES: COc1cc2c(/C=C3/C(=O)Nc4cccc(Cl)c43)c(Cl)n(C)c2cc1C

Activity (Caspase-7 (Homo sapiens)): Active
Activity (Caspase-3 (Homo sapiens)): Active
SMILES: COc1cc2c(/C=C3/C(=O)Nc4cc(C)c(O)cc43)c(Cl)n(C)c2cc1C

Activity (Caspase-7 (Homo sapiens)): Active
Activity (Caspase-3 (Homo sapiens)): Active
SMILES: COc1cc2c(/C=C3/C(=O)Nc4cccc(Cl)c43)c(Cl)n(Cc3ccc(Cl)cc3)c2cc1C

Activity (Caspase-7 (Homo sapiens)): Active
Activity (Caspase-3 (Homo sapiens)): Active
SMILES: COc1cc2c(/C=C3/C(=O)Nc4cc(C)c(O)cc43)c(Cl)n(Cc3ccc(Cl)cc3)c2cc1C

SMILES: COc1cc2c(/C=C3/C(=O)Nc4c3ccc3ccccc43)c(Cl)n(C)c2cc1C
GI50 [1]: 53.7 nM
CC50 [1]: 36300 nM
TGI [1]: 6610 nM
GI50 (NSCLC): 30.9 nM
LC50 (NSCLC): 50100 nM
TGI (NSCLC): 4790 nM
Activity (Caspase-7 (Homo sapiens)): Active
GI50 [2]: 35.5 nM
LC50 [2]: 22900 nM
TGI [2]: 562 nM
Activity (Caspase-3 (Homo sapiens)): Active
GI50 [3]: 17.4 nM
TGI [3]: 501 nM
GI50 [4]: 72.4 nM
LC50 [4]: 22400 nM
TGI [4]: 2630 nM
GI50 [5]: 77.6 nM
LC50 [5]: 5130 nM
TGI [5]: 129 nM
GI50 [6]: 562 nM
CC50 [6]: 25700 nM
TGI [6]: 2450 nM
GI50 [7]: 115 nM
LC50 [7]: 30900 nM
TGI [7]: 1620 nM
GI50 [8]: 46.8 nM
LC50 [8]: 13800 nM
TGI [8]: 3020 nM

Activity (Caspase-7 (Homo sapiens)): Active
Activity (Caspase-3 (Homo sapiens)): Active
SMILES: COc1cc2c(/C=C3/C(=O)Nc4ccccc43)c(Cl)n(C)c2cc1C

Activity (Caspase-7 (Homo sapiens)): Active
Activity (Caspase-3 (Homo sapiens)): Active
SMILES: COc1cc2c(/C=C3/C(=O)Nc4ccc(F)cc43)c(Cl)[nH]c2cc1C
